Laboratory results reported in patent US20160184459A1, “CANCER CELL SPECIFIC IMAGING PROBES AND METHODS OF USE” (THE RESEARCH FOUNDATION FOR THE STATE UNIVERSITY OF NEW YORK, priority 2013, published 2016).

What was measured:
Eph4 = assay: Cell viability assays (MTS, PI staining), normal mammary epithelial cells; type: cell-based, mouse
Description: FIG. 15. Inhibition of cell viability by BKAc-Puro. The cell lines were grown and analyzed as in FIG. 12.
FIG. 17. Selective cytotoxicity by BKAc-Puro on breast cancer cells. Normal mammary gland epithelial cells (Eph4) and breast cancer cells (MCF-7 and MDA-MB-231) were grown and analyzed as in FIG. 10. BF, bright field. PI, fluorescent PI channel. BKAc-Puro can selectively cause cell death in breast cancer cells (MCF-7 and MDA-MB-231) while leaving normal Eph4 cells unharmed.
Cell number was determined by cell counting using improved Neubauer hemacytometer. Cell viability was calculated as the number of viable cells divided by the total number of cells using Trypan Blue Stain (Invitrogen) to distinguish non-viable cells. Data were obtained from duplicated samples with quadruplicate measurements. MTS based cell viability assay was performed using CellTiter 96 Aqueous Cell Proliferation Assay (Promega) according to the manufacturer's instruction. […] After additional 2-3 h incubation, the absorbance of the formazan at 490 nm was measured by the microplate reader. […] Determination of non-viable cells using PI staining was performed by adding 1 μg/ml of PI solution (Sigma) to the cell culture, prior to the examination under fluorescence microscopy (Axiovert 3, Carl Zeiss) through a×32 objective equipped with a digital imaging processor (Infinity 3, Lumenera).

HCT116 xenograft tumor = assay: HCT116 mouse xenograft model; type: in vivo
Description: (§1) FIG. 20. In vivo anticancer efficacy of BKAc-Puro. […] HCT116 cells were implanted subcutaneously into female nude mice. When the developed tumors reached 200 mm^3, animals were intraperitoneally injected by the indicated dose of the compound or vehicle control (DMSO). Tumor volume was estimated by the equation vol=(a×b^2)/2, where vol, a, and b represent volume, the length of the major axis, and the length of the minor axis, respectively. Arrows indicate the time points of treatment. (b) Body weight change during the treatment in a. Value is expressed in percent change compared to the day of the first treatment.
(§2) FIG. 21. HCT116 cells were implanted subcutaneously into female nude mice. When palpable tumors reached 50-150 mm^3, animals were randomized and treated by the indicated dose of the compound or vehicle control (DMSO) via intraperitoneal injection. Tumor incidence is presented as number of mice developed tumor (volume >300 mm^3) after 2 weeks of daily treatment/number of mice treated. Tumor volume was estimated by the equation vol=(a×b^2)/2, where vol, a, and b represent volume, the length of the major axis, and the length of the minor axis, respectively.
(§3) FIG. 29. In vivo anticancer efficacy of Boc-KAc-Puro. (a) Tumor growth in HCT116 xenograft model. Animals were treated with acidified saline control or Boc-KAc-Puro (50 or 150 mg/kg). Values are mean±s.d. (n=5 mice per group). *** P<0.001 compared to the control group. P=0.000716 (50 mg/kg), P=0.000349 (150 mg/kg) at 10 d. (b) Body weight change during the treatment in a and was monitored as a sign of general animal health. Values are mean±s.d. (c) Tumor growth in HT29 xenograft model. Animals were treated with acidified saline control or Boc-KAc-Puro (150 mg/kg). Values are mean±s.d. (n=5 mice per group). *** P<0.001 compared to the control group. P=0.000514 (150 mg/kg) at 10 d. (d) Body weight change during the treatment in c was monitored as a sign of general animal health. Values are mean±s.d. (e) Levels of Puro-incorporated proteins were monitored by immunoblotting. Animals bearing HT29 xenograft tumor were given daily intraperitoneal administration of the prodrug at 150 mg/kg/dose for 3 d, followed by preparation of tissue lysates. The lower panel (anti-α-Tubulin) served as a loading control.
To assess the in vivo efficacy of the compounds, mouse xenograft model using HCT116 colon cancer cells is used as an established evaluation method for the anticancer drugs against cancer (Cao, Z. A. et al. 2006). The growth inhibitory effects of the compounds on size-matched xenografts are examined by subcutaneous implantation of HCT116 cells into nude mice. HCT116 cells are injected subcutaneously and allowed to develop palpable tumors (50-150 mm^3) before initiation of drug administration. Mice (5-10 animals per group) are treated with the vehicle (DMSO or PBS) or the prodrugs by intraperitoneal administration. Dose ranges are determined by the dose escalation studies of the prodrugs. […] Relative tumor volume is calculated by dividing tumor volume by that on day 0 (the day of treatment initiation). […] Statistical significance of the data is evaluated by performing one-way ANOVA with post hoc Turkey's test to compare means (GraphPad Prism software). The efficacy of the compounds is further evaluated in a similar manner by using other cancer cell lines. […]

[1] = Toxicity / body weight change in mice; type: in vivo, mouse
Description: as §1, §2
FIG. 22. Dose escalation toxicity study. Female nude mice (8-10 weeks old) were treated with the indicated dose of BKAc-Puro (7, 20, 67, 200, and 400 mg/kg; n=3 in each treatment group). Body weight change during the treatment is expressed in percent change compared to the day of the first treatment. Arrows indicate the time points of treatment. Data represent mean values±s.d. (n=3).
as §3

COc1ccc(CC(NC(=O)C(CCCCNC(C)=O)NC(=O)OC(C)(C)C)C(=O)NC2C(O)[C@H](n3cnc4c(N(C)C)ncnc43)O[C@@H]2CO)cc1 (stereo partly drawn) [BKAc-Puro, N-[3′-(α-Amino-p-methoxyhydrocinnamamido)-3′-deoxy-N,N-dimethyldenosinyl)-N-α-(t-butoxycarbonyl]-N-ε-acetyl-L-lysineamide]
Cell death (Eph4): unharmed | Tumors developed at 200 mg/kg (HCT116 xenograft tumor; 200 mg/kg, intraperitoneal, 2 weeks daily): no tumors greater than 300 mm^2 were observed | Tumor growth (HCT116 xenograft tumor; 50 and 150 mg/kg/dose daily intraperitoneally for 10 d): dose-dependent inhibition of tumor growth | Tumor mass in comparison to acidified saline control (HCT116 xenograft tumor; 50 and 150 mg/kg/dose, 10 d, P<0.001): significantly smaller tumor mass | Tumor incidence (HCT116 xenograft tumor; intraperitoneal, 2 weeks of daily treatment): inhibition of tumor incidence | Tumor growth (HCT116 xenograft tumor; intraperitoneal, treatment from tumors of 200 mm^3, DMSO vehicle control): inhibition of tumor growth | Tolerability judged by weight loss ([1]; 150 mg/kg/dose daily intraperitoneal for 10 d): well-tolerated | Toxicity ([1]; 400 mg/kg, during and after 14 injections, HCT116 xenograft mice): No toxicity was observed | Toxicity ([1]; tumor incidence study groups, daily intraperitoneal treatment): no toxicity was observed | Systemic toxicity, dose escalation ([1]; up to 400 mg/kg, 5 consecutive daily injections, female nude mice): No severe systemic toxicity was observed
